row,SMILES,melting point
1,CCCc1c(OCCCOc2ccc(NC(=O)C(=O)O)cc2OC)ccc(C(C)=O)c1O,125 to 127 °C
2,CCCn1c(C)nn(-c2ccc([N+](=O)[O-])cc2)c1=O,125 °C
3,CCC(=O)N1C(=O)OC(C)(C)[C@@H]1Cc1ccccc1,61 °C
4,COC(=O)c1ccn2ccnc2c1,143 °C
5,Cc1cc([N+](=O)[O-])c(C(=O)OC(C)C)cc1Oc1ccc(OC(F)(F)F)cc1,47 to 49 °C
6,O=Cc1ccc(OCCCN2C(=O)c3ccccc3C2=O)cc1,120 to 121 °C
7,COc1ccc2oc(N(C=O)[C@@H](Cc3ccccn3)c3ncc(-c4ccc(-n5ccnc5)cc4)n3C)cc2c1,151 to 153 °C
8,NC(=O)c1ncn2c1[C@@H]1CCN1C(=O)c1c-2cccc1C(F)(F)F,> 300 °C
9,CN(C(=O)c1ccc(Cn2cnc3ccccc32)cc1)[C@@H]1CCNC1,150 to 152 °C
10,C#CC(=NOC)C(=O)OC,82 to 83 °C
11,COC1OC(COCc2ccccc2)C(OCc2ccccc2)C(OCc2ccccc2)C1OCc1ccccc1 (configuration not stated),68 to 69 °C
12,CCC1(C)CC(NC(=O)c2ccccc2C(=O)O)C(C)C(C)(CC)N1 (configuration not stated),196 to 197 °C
13,O=C1C[C@@H]2[C@@H](CC[C@@H](O)COc3cccc(Cl)c3)[C@H](O)C[C@@H]2O1,102 to 104 °C
14,CCOC(=O)c1c(-c2cc(C)c(O)c(C)c2)c(C)n2c1-c1cc(N)c(OC)cc1CC2,104 to 106 °C
15,N#Cc1nn(-c2c(Cl)cc(C(F)(F)F)cc2Cl)c(Cl)c1SC(F)(F)F,131 to 132 °C
16,CCN1CCc2nc(Nc3cc(-c4cc(F)cc(C5NCCc6c5sc5c6CC(C)(C)C5)c4CO)cn(C)c3=O)ccc2C1 (configuration not stated),134 to 135 °C
17,CCCc1nc2c(N)nc3ccccc3c2n1CC1(O)CCOCC1,231 to 233 °C
18,C=CCn1c(=O)c2nc(-c3ccc(/C=C/C(=O)O)cc3)[nH]c2n(CC=C)c1=O,> 300 °C
19,Cc1nc(-c2ccc(C#N)cc2)sc1C(=O)N[C@H](C)[C@](O)(Cn1cncn1)c1ccc(Cl)cc1Cl,109 to 113 °C
20,CCCCCCCCCCCCCCC(=O)C(=O)N[C@@H](CCCC)C(=O)NCC(=O)OC,65 to 67 °C
21,COc1ccc2c(Cl)ccnc2c1,86 to 88 °C

row,SMILES,melting point
1,O=S(=O)(Nc1ccc2c(OCc3ccc4ccccc4c3)cccc2c1)C(F)(F)F,140 to 142 °C
2,CCCCN1N=C(c2ccc3c(c2)C(C)(C)CC(=O)N3C)C(C)CC1=O (configuration not stated),137 to 139 °C
3,CC(C)c1ccc(-c2cn(C)cc(-c3ccccc3)c2=O)cc1,159 °C
4,COc1ccc(S(=O)(=O)N=[N+]=[N-])cc1,48 to 50 °C
5,COc1ccc(CNC(=O)c2ccc3n2Cc2ccccc2N(C(=O)c2ccc(-c4ccccc4C)c(C)c2)C3)cc1,127 to 128 °C
6,Cc1ccc(-c2ccnc3c(C(N)=O)ncn23)cc1,263 to 266 °C
7,CC1CCC(C2=C(O)C(=O)c3ccccc3C2=O)CC1 (configuration not stated),101 °C
8,CCCCCCCCCCCc1cc2ccc(C(=O)O)cc2[nH]1,156 to 158 °C
9,O=C(NO)[C@H]1CN(c2ccc(N3CCOCC3)c(F)c2)C(=O)O1,141 to 143 °C
10,CC(=O)CC(O)c1ccc([N+](=O)[O-])cc1 (configuration not stated),62 °C
11,COc1ccc(-n2c(=O)[nH]c3c(C(N)=O)nc(-c4cccc(O)c4)nc32)c(F)c1,> 260 °C
12,N#Cc1ccc(NCC(=O)Nc2c(Cl)ccc3nc(N4CC[C@@H](O)C4)ccc23)cc1,230 to 233 °C
13,COc1cc(OC)c(C(=O)CCl)cc1C,166 to 167 °C
14,O=C(NCC(=O)c1ccco1)c1ccc(F)cc1,153 to 155 °C
15,O=C(O)C1=Cc2c(ccc3oc4ccccc4c23)OC1C(F)(F)F (configuration not stated),254 to 255 °C
16,CCn1nc(-c2c(-c3ccc(F)cc3)nn3ccc(OC)cc23)ccc1=O,179 to 180 °C
17,Cn1ccnc1Sc1ccc(Nc2c(C#N)cnc3sccc23)cc1Cl,> 240 °C
18,Cc1cc2c(cc1C)C(N)CC(C)(C)O2 (configuration not stated),> 270 °C
19,CCCCCCCCCC(O)P(=O)(O)O (configuration not stated),164 °C
20,COc1cc(C(=O)Nc2cc(-c3c(-c4ccc(F)c(C)c4)nc4cccnn34)ccn2)ccc1F,217 to 218 °C
21,O=C(NCN1CCCCC1)Nc1ccc(-c2cnc(CSCCOc3ccccc3)o2)cc1,84 to 87 °C

# The next lines start with the values.
row,melting point,SMILES
1,106 °C,O=C(O)CCN(C(=O)Cl)c1cccc(Cl)c1
2,112 to 113 °C,COc1ccc(CCCOS(C)(=O)=O)cc1OCc1coc(/C=C/c2ccccc2)n1
3,115 to 117 °C,C/C(=C(\Br)C=O)c1ccc2c(c1)C(C)(C)CCC2(C)C
4,88 to 93 °C,C=CCN(C)CCCCCCOc1ccc2c(-c3ccc(Br)cc3)cc(C)nc2c1
5,138 to 140 °C,COc1cccc(C2(COc3cccc4cc(NS(=O)(=O)C(F)(F)F)ccc34)N=CNO2)c1 (configuration not stated)
6,180 to 182 °C,COc1ccc2c(c1)CN(C(=O)CN1CCOCC1)N=C2Cc1c(Cl)cncc1Cl
7,229 °C,Cc1ccc(C2Sc3ccccc3NC(=O)C2CO)cc1 (configuration not stated)
8,> 250 °C,C#CCn1c(=O)sc2cc(F)c(-n3c(=O)cc(C)[nH]c3=O)cc21
9,150 to 155 °C,c1ccc(-c2nnn[nH]2)c(-c2ccc(CNc3ccnc4ccnn34)cc2)c1
10,160 to 163 °C,Cc1ccc(C(=O)NCc2ccccc2)cc1-c1nc(NCCN(C)C(=O)OC(C)(C)C)nc2c1CNC(=O)N2c1c(F)cccc1F
11,219 °C,CCCc1c2nc(C(=O)OC)cc(NS(=O)(=O)c3ccc(C)cc3)c2cc2c(=O)cc(C(=O)OCC)oc12
12,93 to 94 °C,C[C@@]1(Cn2cc([N+](=O)[O-])nc2Br)CO1
13,245 to 247 °C,c1cnc(N2CCN(Cc3ccc4c(c3)Cc3c(-c5ccsc5)n[nH]c3-4)CC2)nc1
14,176 to 178 °C,CCOC(=O)c1ccccc1-n1nc(C(=O)OCC)c2csc(N)c2c1=O
15,233 to 236 °C,Clc1ccc(Nc2nnc(NCc3ccncc3)c3ccccc23)cc1
16,162 to 163 °C,CC(=O)Oc1ccc(C=Cc2cc(OC(C)=O)c(OC(C)=O)c(OC(C)=O)c2)cc1
17,89 to 90 °C,CCOC(=O)COc1ccc(C23CC4CC(CC(C4)C2)C3)cc1
18,63 to 64 °C,COc1cc(O)c(C=O)cc1Br
19,241 to 243 °C,Oc1ncnc2c1CCOc1ccccc1-2
20,140 to 142 °C,COc1ccc(Cn2nnnc2C(=O)Nc2cc(OCCCOc3ccc(C(C)=O)c(O)c3CCC(F)(F)F)c(Br)cc2C)cc1
21,79 to 81 °C,CCN(CC)C(=O)Nc1c(C)c(C)c2c(c1C)C(c1ccc(C(C)C)cc1)CO2 (configuration not stated)
22,240 to 242 °C,COc1cc2c(cc1O)C(=O)C1c3c(cc(OC(C)C)c(OC)c3-2)CCN1C (configuration not stated)
23,110 to 112 °C,CC1(C)COC(c2ccccc2C2Oc3cccc(F)c3C(=O)C2=Cc2ccccc2)=N1 (configuration not stated)
24,146 to 147 °C,CC(C)c1nc(CCOC(=O)N[C@H](C(=O)N[C@@H](Cc2ccccc2)C[C@H](O)[C@H](Cc2ccccc2)NC(=O)OCc2cncs2)C(C)C)cs1
25,148 to 149 °C,CC(=O)Oc1ccc(-c2c(C)c3ccc(F)cc3oc2=O)c(OC(C)=O)c1
26,99 to 100 °C,CCCCCCCCCCCCCCCc1cccc(OCC)c1C1NC(=O)NC(C)=C1C(=O)OCC (configuration not stated)
27,227 °C,CS(=O)(=O)c1cccc(NC(=O)c2cnn3c(C(F)(F)F)cc(-c4ccc(C(F)(F)F)c(OCC(F)(F)F)c4)nc23)c1
28,228 °C,Cc1c(Nc2c(C#N)cnc3sc(C4=CCN(S(C)(=O)=O)CC4)cc23)ccc2[nH]ccc12

row,melting point,SMILES
1,191 to 193 °C,O=C(O)C(Cc1ccc2c(c1)OCO2)Cc1ccc2c(c1)OCO2
2,160 to 162 °C,O=C(O)c1cncc(OCc2ccccc2)n1
3,108 to 109 °C,CCCNC(=O)NC1CCCCC1
4,88 to 90 °C,COC(=O)COc1cccc2c(CCN=[N+]=[N-])c(C)oc12
5,91 to 92 °C,OCCOCC(O)c1cccc2ccccc12 (configuration not stated)
6,149 to 151 °C,CCCCc1oc2ccccc2c1-c1ncc(-c2ccc3cc(OCC(=O)OC)ccc3c2)o1
7,221 to 222 °C,Cc1cc2c(c3ccc(=O)[nH]c13)OC(CNC(=O)[C@@H](C)NC(=O)OCc1ccccc1)C2 (some centres not stated)
8,220 to 221 °C,CCOC(=O)c1c(-c2ccc(OC)c(OC)c2)c2cc(C)ccc2[nH]c1=O
9,111 to 113 °C,CN1CCCC(c2cccc(-n3cnc4cc(C(=O)OCC5CC5)ccc43)c2)C1 (configuration not stated)
10,228 to 232 °C,COC(=O)c1cc(-c2ccc(Cl)cc2)[nH]c1Cl
11,219 to 220 °C,O=c1cc(C(F)(F)F)n(-c2c([N+](=O)[O-])cc([N+](=O)[O-])cc2C(F)(F)F)c(=O)[nH]1
12,116 to 119 °C,NCCCc1ccc(CCCN)nc1
13,61 to 62 °C,COc1ccc(-c2c(C(=O)O)n(Cc3cc4c(cc3Cl)OCO4)c3ccccc23)c(OCC(=O)O)c1
14,132 to 133 °C,COc1ccc(C(=O)Cc2c(Cl)cncc2Cl)c2c(CC(=O)OCc3ccccc3)coc12
15,245 to 247 °C,O=C1CCC(N2C(=O)c3cccc(NC(=O)c4cccc([N+](=O)[O-])c4)c3C2=O)C(=O)N1 (configuration not stated)
16,> 300 °C,CC(C)OC(=O)C(=O)Nc1cc(Cl)ccc1O
17,203 to 204 °C,CC1(C)CCCC(C)(C)N1Cc1ccc2cc(NC(=O)N3CCC(c4ccc(Cl)cc4)CC3)ccc2n1
18,> 330 °C,COc1ccc2[nH]c3c(c4c(c5c6cc(OC)ccc6n(C)c35)C(=O)N(C)C4=O)c2c1
19,302 to 306 °C,COc1cccc2c1nc(C(F)F)n2-c1nc(Nc2ccc(NS(C)(=O)=O)nc2)nc(N2CCOCC2)n1
20,123 °C,Nc1cc2c(cc1Oc1ccc(F)cc1)CCC2
21,90 to 92 °C,Cc1nc(-c2ccccc2)nc(N2CCCC2C(=O)O)c1C (configuration not stated)
22,204 to 205 °C,CCCn1c(=O)c(N=O)c(N)n(CCc2ccc([N+](=O)[O-])cc2)c1=O
23,258 °C,Nc1c(Cl)cc(C(=O)O)c2c1CCO2
24,253 to 254 °C,O=C(O)c1cc(OCc2ccc(Cl)cc2)c(C(=O)c2ccccc2)c([N+](=O)[O-])c1
25,144 to 145 °C,COc1ccc(N2CCN(c3c(C)c(C)c4c(c3C)C(CN3CCCCC3)C(C)(C)O4)CC2)cc1 (configuration not stated)
26,169 to 173 °C,C[C@@H]1NC(=O)C[C@]1(C)O
27,> 250 °C,COc1ccc2[nH]c(S(=O)(=O)c3ccc(=O)[nH]n3)cc2c1
